Source: patent US9115073B2, “1,3-diphenylpropane derivatives, preparations and uses thereof” (GENFIT, priority 2011, dated 2015)

How the values were obtained:
Assay type in all cases: cell-based
[1] = biological target: T1, hPPARgamma (Homo sapiens, UniProt P37231); test: Gal4-hPPARgamma transactivation assay in COS-7 cells (luciferase); conditions: for Emax: COS-7, maximal relative activation vs reference, read-out: Gal4-hPPARγ(LBD) TOP (% ref); for EC50: Gal4-hPPARγ(LBD) transactivation; for Gal4-hPPARγ(LBD) TOP (% ref): maximal relative activation vs reference
T1 construct: Gal4-hPPARγ(LBD); Gal4 (fusion partner); expressed in transfected cells; host or cells: COS-7 (monkey kidney)
T1 sequence (P37231 238-503 limits assumed): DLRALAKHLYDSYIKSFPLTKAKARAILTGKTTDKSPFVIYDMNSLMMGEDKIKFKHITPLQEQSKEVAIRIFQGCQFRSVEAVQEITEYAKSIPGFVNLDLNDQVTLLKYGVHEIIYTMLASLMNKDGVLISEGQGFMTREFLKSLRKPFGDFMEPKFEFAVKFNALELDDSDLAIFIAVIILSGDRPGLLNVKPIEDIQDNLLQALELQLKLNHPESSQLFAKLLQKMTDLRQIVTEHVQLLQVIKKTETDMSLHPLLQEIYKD
Description: (§1) Monkey kidney COS-7 cells were maintained in standard culture conditions (Dulbecco's modified Eagle's minimal medium: DMEM) supplemented with 10% fetal calf serum, 1% sodium pyruvate, 1% essential amino acids and 1% antibiotics at 37° C. in a humidified atmosphere of 5% C02 and 95% air. The medium was changed every 2 days. All tested compounds were dissolved in DMSO. Cells were transfected using 2 μl JetPEI™ (Polyplus transfection)/μg of DNA. Briefly, 40 μg of DNA was transfected in a 225 cm^2 culture flask of adherent COS-7 cells (respecting the 1/50 ratio between the Gal4(RE)_TkpGL3 plasmid and the plasmid coding the nuclear receptor of interest (pGal4-hPPARalpha, pGal4-hPPARgamma, pGal4-hPPARdelta, pGal4-mPPARalpha, pGal4-mPPARgamma and pGal4-mPPARdelta) or of the pGal4phi plasmid (negative control). Cells were enzymatically detached and seeded in 384 well plates at the density of 20,000 cells/well and then incubated for 4 hours at 37° C. The activation was automatically performed, by using the Genesis Freedom 200™ (Tecan), in fresh medium supplemented with 2% of synthetic serum, free of lipids (Ultroser™, Biosepra) supplemented with the tested compounds (compound of interest or reference molecules) or vehicle (DMSO 0.1%). The luciferase activity was measured with the Steady-Glo Luciferase Assay System (Promega, Madison, Wis.). All transactivation experiments were performed at least 2 times. Activation curves were realized using SigmaPlot® (version 7.0 from SPSS Inc.) software and took into account all the experimental points. SimgaPlot® was also used to fit the standard curves and then determine the specific EC50 values, maximum effect versus reference molecules and Hill slope. The Emax effect of each new ligand is represented as the ratio of the maximal induction (plateau) obtained with the new ligand and the induction obtained with the corresponding reference compound. The reference compounds for PPARalpha, PPARgamma and PPARdelta were fenofibrate (100 μM), rosiglitazone (10 μM) and GW501516 (1 μM).

[2] = biological target: T2, hPPARalpha (Homo sapiens, UniProt Q07869); test: Gal4-hPPARalpha transactivation assay in COS-7 cells (luciferase); conditions: for Emax: COS-7, maximal relative activation vs reference, read-out: Gal4-hPPARα(LBD) TOP (% ref); for EC50: Gal4-hPPARα(LBD) transactivation; for Gal4-hPPARα(LBD) TOP (% ref): maximal relative activation vs reference
T2 construct: Gal4-hPPARα(LBD); Gal4 (fusion partner); expressed in transfected cells; host or cells: COS-7 (monkey kidney)
T2 sequence (Q07869 239-466 limits assumed): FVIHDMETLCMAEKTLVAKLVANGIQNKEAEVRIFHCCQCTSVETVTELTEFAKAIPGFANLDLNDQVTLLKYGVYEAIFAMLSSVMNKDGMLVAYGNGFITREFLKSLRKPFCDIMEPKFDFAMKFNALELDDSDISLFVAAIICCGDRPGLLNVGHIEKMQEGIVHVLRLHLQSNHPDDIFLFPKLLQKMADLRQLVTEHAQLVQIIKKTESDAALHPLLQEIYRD
Description: as §1

[3] = biological target: T3, hPPARdelta (Homo sapiens, UniProt Q03181); test: Gal4-hPPARdelta transactivation assay in COS-7 cells (luciferase); conditions: for Emax: COS-7, maximal relative activation vs reference, read-out: Gal4-hPPARδ(LBD) TOP (% ref); for EC50: Gal4-hPPARδ(LBD) transactivation; for Gal4-hPPARδ(LBD) TOP (% ref): maximal relative activation vs reference
T3 construct: Gal4-hPPARδ(LBD); Gal4 (fusion partner); expressed in transfected cells; host or cells: COS-7 (monkey kidney)
T3 sequence (Q03181 211-439 limits assumed): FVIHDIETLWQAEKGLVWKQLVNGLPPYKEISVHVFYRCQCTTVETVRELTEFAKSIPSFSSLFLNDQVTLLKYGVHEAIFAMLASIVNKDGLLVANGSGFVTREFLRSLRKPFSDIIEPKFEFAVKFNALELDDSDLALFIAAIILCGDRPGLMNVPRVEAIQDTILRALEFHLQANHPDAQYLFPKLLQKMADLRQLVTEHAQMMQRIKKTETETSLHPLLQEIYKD
Description: as §1

SMILES	Emax [1] [%]	EC50 [1] [nM]	Emax [2] [%]	EC50 [2] [nM]	Emax [3] [%]	EC50 [3] [nM]	Gal4-hPPARγ(LBD) TOP (% ref) [1] [% ref]	Gal4-hPPARα(LBD) TOP (% ref) [2] [% ref]	Gal4-hPPARδ(LBD) TOP (% ref) [3] [% ref]
Cc1cc(C2CC2C(OCCC2CCCCC2)c2ccc(OC(F)(F)F)cc2)cc(C)c1OC(C)(C)C(=O)O (racemic) [Cpd 6-1, 2-(4-(2-(cyclohexylethyloxy(4-(trifluoromethoxy)phenyl)methyl)cyclopropyl)-2,6-dimethylphenoxy)-2-methylpropanoic acid]	71	94	36	68	72	100	–	–	–
COC(c1ccc(OC(F)(F)F)cc1)C1CC1c1ccc(OC(C)(C)C(=O)O)c(C(C)C)c1 (racemic) [Cpd 15-2, 2-(2-isopropyl-4-(2-(methoxy(4-(trifluoromethoxy)phenyl)methyl)cyclopropyl)phenoxy)-2-methylpropanoic acid]	–	–	–	–	–	–	69	31	96
COC(c1ccccc1OC(F)(F)F)C1CC1c1cc(C)c(OC(C)(C)C(=O)O)c(C)c1 (racemic) [Cpd 13-2, 2-(4-(2-(methoxy(2-(trifluoromethyloxy)phenyl)methyl)cyclopropyl)-2,6-dimethylphenoxy)-2-methylpropanoic acid]	–	–	–	–	–	–	71	28	57
COC(c1ccc(OC(F)(F)F)cc1)C1CC1c1ccc(OC(C)(C)C(=O)O)c(C)c1 (racemic) [Cpd 7-1, 2-(4-(2-(methoxy(4-(trifluoromethoxy)phenyl)methyl)cyclopropyl)-2-methylphenoxy)-2-methylpropanoic acid]	55	45	42	265	90	35	–	–	–

The remaining lines, values ahead:

Emax [1] [%]	EC50 [1] [nM]	Emax [2] [%]	EC50 [2] [nM]	Emax [3] [%]	EC50 [3] [nM]	Gal4-hPPARγ(LBD) TOP (% ref) [1] [% ref]	Gal4-hPPARα(LBD) TOP (% ref) [2] [% ref]	Gal4-hPPARδ(LBD) TOP (% ref) [3] [% ref]	SMILES
66	66	24	449	92	105	–	–	–	COC(c1ccc(OC(F)(F)F)cc1)C1CC1c1ccc(OC(C)(C)C(=O)O)c(C(C)C)c1 (single isomer, unassigned) [Cpd 15-1, 2-(2-isopropyl-4-(2-(methoxy(4-(trifluoromethoxy)phenyl)methyl)cyclopropyl)phenoxy)-2-methylpropanoic acid]
48	828	17	3650	88	3270	–	–	–	COC(c1ccc(OC(F)(F)F)cc1)C1CC1c1ccc(OC(C)(C)C(=O)O)c(C2CC2)c1 (racemic) [Cpd 21-1, 2-(2-cyclopropyl-4-(2-(methoxy(4-(trifluoromethoxy)phenyl)methyl)cyclopropyl)phenoxy)-2-methylpropanoic acid]
72	72	26	652	59	328	–	–	–	COC(c1ccccc1OC(F)(F)F)C1CC1c1cc(C)c(OC(C)(C)C(=O)O)c(C)c1 (single isomer, unassigned) [Cpd 13-1, 2-(4-(2-(methoxy(2-(trifluoromethyloxy)phenyl)methyl)cyclopropyl)-2,6-dimethylphenoxy)-2-methylpropanoic acid]
–	39	–	30	–	24	–	43	73	CCOC(c1ccc(OC(F)(F)F)cc1)C1CC1c1cc(C)c(OC(C)(C)C(=O)O)c(C)c1 (racemic) [Cpd 10-2, 2-(4-(2-(ethoxy(4-(trifluoromethoxy)phenyl)methyl)cyclopropyl)-2,6-dimethylphenoxy)-2-methylpropanoic acid]
–	–	–	–	–	–	85	37	78	COC(c1ccc(C(F)(F)F)cc1F)C1CC1c1cc(C)c(OC(C)(C)C(=O)O)c(C)c1 (racemic) [Cpd 12-2, 2-(4-(2-(methoxy(2-fluoro-4-(trifluoromethyl)phenyl)methyl)cyclopropyl)-2,6-dimethylphenoxy)-2-methylpropanoic acid]
